Data set [1] concerns Antigen-specific multifunctional CD4+ T cells. In words: Antigen-specific multifunctional T cells (intracellular cytokine staining, flow cytometry) in spleen cells of immunized mice. The conditions noted are these: adjuvanted Ovalbumin, CD4+ and CD8+ T cell populations. In kind it is in vivo, BALB/c mice. The method, then: FIG. 8: Antigen-specific multifunctional CD4+ T cells. (A) Groups of 3 BALB/c mice were immunized intramuscularly with PBS (control) or with three doses (14 days apart) of Ovalbumin (30 μg), alone or adjuvanted with c-di-AMP or aßGalCerMPEG or IPB 2033-2044 (15 μg). At 14 days after the second immunization, spleen cells were harvested, restimulated with Ovalbumin, intracellularly stained for double positive Th cytokines (IFN-γ, IL-2, TNF-α, IL-4 and IL-17), and analyzed by flow cytometry. […] At 14 days after the second immunization, spleen cells were harvested, restimulated with Ovalbumin, intracellularly stained for triple positive Th cytokines (IFN-γ, IL-2, TNF-α, IL-4 and IL-17), and analyzed by flow cytometry.
In order to characterize more accurately the cellular immune response, the production of intracellular cytokines was measured in CD4+ and CD8+ T cells. […]
Therefore, mice were immunized to assess the in vivo performance of CDA in an active vaccination setting. To assess vaccination effectivity, the frequencies of cytokine producers among the CD4+ and CD8+ T cell populations were evaluated by intracellular cytokine staining and flow cytometry. […] Thus, the frequency of T cells producing single cytokines or combinations (positive events/million) was analyzed by flow cytometry.
For orientation: A flow cytometer gives signals particle by particle.

For data set [2] the following is noted: Ebensen et al J. Immunol. 179 (2007) 2065; cited from earlier work.

Here are results for two compounds from patent US12564631B2, “Phytosphingosine derivatives as adjuvants in immune stimulation” (Helmholtz-Zentrum für Infektionsforschung GmbH, priority 2020, dated 2026).

For `Nc1ncnc2c1ncn2[C@@H]1O[C@@H]2COP(=O)(O)O[C@H]3[C@@H](O)[C@H](n4cnc5c(N)ncnc54)O[C@@H]3COP(=O)(O)O[C@H]2[C@H]1O` [CDA, c-di-AMP], the “frequency of triple, double and single cytokine producers among T cells” value in data set [1] is “increased the frequency of triple, double and single cytokine producers”.

Regarding `CCCCCCCCCCCCCCCCCCCCCCCCCC(=O)N[C@@H](CO[C@H]1O[C@H](CO)[C@H](O)[C@H](O)[C@H]1O)[C@H](O)[C@H](O)CCCCCCCCCCCCCC` [KRN7000], in data set [2], the solubility result is listed as “low solubility”.
